According to US8143268B2, “Bicyclic pyrimidinones and uses thereof” (Avexa Limited, priority 2006, dated 2012):
Like-named read-outs stand apart in the source and are kept apart here.

Key:
integrase = target: T1, integrase (Human immunodeficiency virus type 1 group M subtype B, UniProt P04585); experiment: HIV integrase 3′ processing/strand transfer assay (IC50); format: biochemical
T1 construct: Each reaction (40 ul) contains 30 nM substrate DNA ad 400 ng integrase
Experimental: A combined 3′-processing/strand transfer assay procedure similar to that published (Ovenden et al. Phytochemistry. 2004 December; 65(24):3255-9.) could be used. The assay could be adapted to a 96 well plate format. Briefly, 400 ng of […] is incubated with 30 nM substrate DNA, consisting of annealed U5 LTR sequence oligonucleotides tagged with Digoxigenin (DIG; 5′-[…]-DIG-3′ (SEQ ID NO: 1)) or biotin (5′-Bio-[…]-3′ (SEQ ID NO: 2)) so that each substrate has either a DIG or Bio tag on opposite strands. Reactions are carried out for 2 hrs at 37° C., products generated as a result of 3′ processing and strand transfer activity are bound to streptavidin plates and detected with using anti-DIG-alkaline phosphatase conjugate and p-nitro phenyl phosphate substrate.
The strand transfer specific assay is of similar format to that of the 3′ processing/strand transfer combined assay except that it uses a biotinylated substrate that represents a pre-processed LTR end (5′-Bio-[…]-3′ (SEQ ID NO: 3)).
Oligonucleotides 5′-biotin-[…]-3′ (SEQ ID NO: 3) and 5′-[…]-Dig-3′ (SEQ ID NO: 1) are annealed in 10 mM Tris-Cl pH8.0, 100 mM NaCl, 2 mM EDTA at a final concentration of 30 uM.
Each reaction (40 ul) contains 30 nM substrate DNA ad 400 ng integrase in a reaction buffer comprising 20 mM Tris-Cl pH7.5, 25 mM NaCl, 5 mM MnCl2, 5 mM MgCl2, 5 mM B-ME, 50 ug/mL BSA, 0.05% (v/v) Tween-20.
Compounds are added in DMSO at 1/10 final reaction volume.
Reactions are incubated at 37° C. for 2 hr followed by the addition of 60 ul adjustment buffer containing 33 mM Tris-Cl pH 7.5, 664 mM NaCl, 16.6 mM EDTA, 0.166 mg/mL sonicated salmon sperm DNA.
The samples are then transferred to Streptavidin coated plates and products of the enzyme reactions are allowed to bind for 1 hr at room temperature.
Plates are then washed with 3×5 min with 30 mM NaOH, 200 mM NaCl, 1 mM EDTA then 3×5 min with wash 2: 10 mM Tris-Cl pH8.0, 6 mM EDTA, 0.1 mg/mL nuclease free BSA.
Anti-digoxigenin-phosphatase Fab (Roche, 0.1 U/mL)), diluted 1/2000 in wash 2 buffer is then added to each well and plates incubated 1 hr at 37° C.
Plates are then washed 3 times with TBS— Tween-20 (0.1%) then twice with TBS and 100 ul substrate (1 mg/mL p-nitrophenylphosphate in 0.1M Tris, pH 9.8) is added and plates incubated until sufficient colour is developed.

[1] = Compound cytotoxicity (CC50); format: cell-based; settings: wells without virus
Experimental: (§1) Cells are seeded into 96 well microtitre plates at 50,000 cells per 50 μl per well in RF-containing […] polybrene (RF-10/2). Compounds are prepared to 4× final concentration in RF-10/2, and 30 L added to cells. Virus (40 L in RF-10/2 containing 1600 pfu) is added to each well or 40 L RF-10/2 for negative controls and for assaying compound cytotoxicity. After 24 hrs, an additional 90 μL of media or media containing 1× compound is added to each well. At 4 days post infection, 100 μL of media is removed from each well and replaced with 100 μl of fresh media with or without compound. Forty eight hours later supernatants are harvested and levels of extracellular p24 determined. Supernatants are diluted 1 in 10,000 and p24 levels assayed using the Vironostika p24 assay kit. EC50 is calculated as the concentration required to inhibit HIV p24 production to 50% that of no drug controls.

HIV = experiment: Inhibition of HIV replication (p24); format: cell-based; settings: Human immunodeficiency virus 1; concentration inhibiting HIV p24 production to 50% of no drug controls
Experimental: as §1

[2] = target: T2, HIV integrase enzyme (Q148K) (Human immunodeficiency virus type 1 group M subtype B, UniProt P04585, Q1295K); experiment: Strand transfer assay, mutant (Q148K) HIV integrase; format: biochemical; settings: FIG. 1
Experimental: A strand transfer assay procedure similar to that published (Ovenden et al. Phytochemistry. 2004 December; 65(24):3255-9.) is used. Briefly, 400 ng of the enzyme, wild type or drug resistant mutant, is mixed with the compound to be tested and incubated with 30 nM substrate DNA. The substrate DNA is designed to mimic HIV DNA termini that has undergone 3′ end processing, and consists of the annealed U5 LTR sequence oligonucleotides tagged with Digoxigenin (DIG; 5′-[…]-DIG-3′ (SEQ ID NO: 1)) or biotin (5′-Bio-[…]-3′ (SEQ ID NO: 3)) so that each substrate has either a DIG or Bio tag on opposite strands. Reactions are carried out for 1 hr at 37° C. Products generated as a result of strand transfer activity are bound to streptavidin plates and detected using anti-DIG-alkaline phosphatase conjugate and p-nitro phenyl phosphate substrate.
FIG. 1 represents as an example, strand transfer assay results from selected compounds against wild-type integrase and the integrase containing the Q148K mutation.
HIV integrase was mutated within a shuttle vector (pGEM) containing the majority of the HIV-I gag and pol sequence using site directed mutagenesis to generate integrase sequences that have been published as conferring resistance to published integrase inhibitors. These include, but are not limited to, mutations such as Q148K. […]

[3] = target: T2, HIV integrase enzyme (Q148K); settings: Q148K mutant enzyme; cited from earlier work
[4] = integrase assay, which of Example 28.1/28.2 not stated, read-out: IC50

Row | Compound | IC50 (integrase; [4]) | IC50 (integrase) | CC50 at 6 days [1] | EC50 (HIV) | other results
1 | Cc1ccc2nc(-c3noc(Cc4ccc(F)cc4)n3)c(O)c(=O)n2c1 | 0.001 to 1 µM |  |  |  | 
2 | Cc1ccc2nc(-c3ncc(-c4ccc(F)cc4)o3)c(O)c(=O)n2c1 | > 1 µM |  |  |  | 
3 | Cc1ccc2nc(-c3nnc(-c4ccccc4)o3)c(O)c(=O)n2c1 | > 1 µM |  |  |  | 
4 | Cc1ccc2nc(-c3nnc(Cc4ccc(F)cc4)s3)c(O)c(=O)n2c1 | 0.001 to 1 µM |  |  |  | 
5 | Cc1ccc2nc(C(=O)NCc3ccc(F)cc3)c(O)c(=O)n2c1 [7-Me, CONHCH2 (4F-Ph), 3-Hydroxy-7-methyl-4-oxo-4H-pyrido[1,2-a]pyrimidine-2-carboxylic acid 4-fluoro-benzylamide] |  | 1 to 10 µM | > 1 µM | 0.001 to 1 µM | 
6 | O=C(NCc1ccc(F)cc1)c1nc2ccc(Br)cn2c(=O)c1O [7-Br, CONHCH2 (4F-Ph), 7-Bromo-3-hydroxy-4-oxo-4H-pyrido[1,2-a]pyrimidine-2-carboxylic acid 4-fluoro-benzylamide] |  | 1 to 10 µM | > 1 µM | 0.001 to 1 µM | 
7 | O=C(NCc1ccc(Cl)c(Cl)c1)c1nc2ccc(N3CCOCC3)cn2c(=O)c1O [Example 6.13, 3-Hydroxy-7-morpholin-4-yl-4-oxo-4H-pyrido[1,2-a]pyrimidine-2-carboxylic acid 3,4-dichloro-benzylamide] |  |  |  |  | activity against HIV integrase enzyme (Q148K) [2]: particularly high activity
8 | Cc1ccc2nc(-c3ncc(Cc4ccc(F)cc4)o3)c(O)c(=O)n2c1 | 0.001 to 1 µM |  |  |  | 
9 | Cc1ccc2nc(C(=O)NCc3ccc(Cl)c(Cl)c3)c(O)c(=O)n2c1 [7-Me, CONHCH2 (3,4-ClPh), 3-Hydroxy-7-methyl-4-oxo-4H-pyrido[1,2-a]pyrimidine-2-carboxylic acid 3,4-dichloro-benzylamide] |  | 0.001 to 1 µM | > 1 µM | 0.001 to 1 µM | 
10 | Cc1nnc(C(=O)NC(C)(C)c2nc(C(=O)NCc3ccc(F)cc3)c(O)c(=O)n2C)o1 [Raltegravir] |  |  |  |  | resistance of Q148K HIV integrase to published integrase inhibitors [3]: resistant
